According to patent US8507411B2, “Neoglycorandomization and digitoxin analogs” (priority 2004, dated 2013):
Like-named read-outs stand apart in the source and are kept apart here.

Legend:
HCT-116 = test: High-throughput calcein AM cytotoxicity assay, HCT-116; type: cell-based, human; conditions: read-out: IC50, HCT-116
Source text: (§1) Standard errors are depicted with error bars.

Hep3B = test: High-throughput calcein AM cytotoxicity assay, Hep3B; type: cell-based, human
Source text: as §1

[1] = test system: nine human cancer cell lines and a mouse mammary normal epithelial control line; test: High-throughput calcein AM cytotoxicity assay, whole cell line panel; conditions: for cytotoxicity (in words): cell line panel, 72 h, calcein AM
Source text: In the assay, live cells were distinguished by the presence of a ubiquitous intracellular enzymatic activity which converts the non-fluorescent cell-permeable molecule calcein AM to the intensely fluorescent molecule calcein, which is retained within live cells. The IC50 value for each library member represents at least six replicates of dose-response experiments conducted over five concentrations using two-fold dilutions. […] Standard errors are depicted with error bars. Numerical values and corresponding error values can be found in Table 4. Du145: […]; MCF7: human breast carcinoma; HCT-116: human colon carcinoma, Hep3B: human liver carcinoma; SF-268: human CNS glioblastoma; SK-OV-3: human ovary adenocarcinoma; NCI-H460: human lung carcinoma; A549: human lung adenocarcinoma; NCI/ADR-RES: human breast carcinoma; NmuMG: mouse mammary normal epithelial.
Cell Culture: All cell lines except NmuMG were maintained in RPMI 1640 medium from InVitrogen (Cat No. 11875-085) supplemented with 10% w/v fetal bovine serum (FBS) from ICN (Cat No. 2916154) and penicillin-streptomycin (PS) (100 U/mL and 100 μg/mL) from InVitrogen (Cat No. 15140-122). NmuMG cells were maintained in DMEM medium from InVitrogen (Cat No. 11965-084) supplemented with 10% w/v fetal bovine serum (FBS) from ICN (Cat No. 2916154), 10 μg/ml insulin (InVitrogen Cat No 12585-014), and penicillin-streptomycin (PS) (100 U/mL and 100 μg/mL) from InVitrogen (Cat No. 15140-122). Cells were harvested by trypsinization using 0.25% w/v trypsin and 0.1% w/v EDTA from InVitrogen (Cat No. 15-050-057) and then counted in a hemocytometer in duplicate with better than 10% agreement in field counts. Cells were plated at a cell density of 10,000-15,000 cells/well of each Corning Costar 96-well black tissue culture treated microtiter plate (Fisher Cat No. 07-200-627). Cells were grown for 1 h at 37° C., with 5% CO2 in a humidified incubator to allow cell attachment to occur before compound addition.
Library Member Handling and Preparation for Cytotoxicity Assays: Library members were stored at −20° C. under dessicating conditions before the assay. Library member stocks (100×) were prepared in Corning Costar polypropylene 96-well V-bottom polypropylene microtiter plates (Fisher Cat No. 07-200-695). Five serial 1:2 dilutions were made with anhydrous DMSO at 100× the final concentration used in the assay.
Library Member Addition: The library member-containing plates were diluted 1:10 with complete cell culture media. The 10× stocks (10 μL) were added to the attached cells using a Biomek FX liquid handler (Beckman-Coulter). Library member stocks (10 μL) were added to 90 μL of cells in each plate to insure full mixing of stocks with culture media using a Beckman FX liquid handler with 96-well head.
Determination of Cytotoxicity: Cells were incubated with the library members for 72 h before fluorescence reading. Test plates were removed from the incubator and washed 1× in sterile PBS to remove serum containing calcium esterases. Calcein AM reagent (30 μL, […]) was added and the cells were incubated for 30 min at 37° C. Plates were read for emission using a fluorescein filter (excitation 485 nm, emission 535 nm).
IC50 Calculation: For each library member, at least six dose response experiments were conducted. […] To calculate IC50, percent inhibitions were plotted as a function of log [concentration] and then fit to a four-parameter logistic model that allowed for a variable Hill slope using XLfit 4.1.
Cytotoxicity Assays. All cell lines except NmuMG were maintained in RPMI 1640 medium supplemented with 10% w/v fetal bovine serum (FBS) and penicillin-streptomycin (PS) (100 U/mL and 100 μg/mL).

SK-OV-3 = test: cells; type: cell-based, human
In short: (§2)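 Plated cells received compound dilutions after 1 h attachment and sat 72 h at 37 °C, 5% CO2. Serum was washed off with PBS before calcein AM staining, since serum esterases interfere. Four-parameter fits with variable Hill slope gave IC50s.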

NCI/ADR-RES = test: cells; type: cell-based, human
In short: as §2

SF-268 = test: cells; type: cell-based, human
In short: as §2

NmuMG = test: cells; type: cell-based, mouse; conditions: read-out: IC50, NmuMG
In short: as §2

NCI-H460 = test: High-throughput calcein AM cytotoxicity assay, NCI-H460; type: cell-based, human; conditions: read-out: IC50, NCI-H460
Source text: as §1

Du145 = test: High-throughput calcein AM cytotoxicity assay, Du145; type: cell-based, human
Source text: as §1

A549 = test: High-throughput calcein AM cytotoxicity assay, A549; type: cell-based, human; conditions: read-out: IC50, A549
Source text: as §1

Na+/K+-ATPase [2] = target: T1, Na+/K+-ATPase (Homo sapiens, UniProt P05023); test: Non-radioactive rubidium ion uptake assay, HEK-293 cells; type: cell-based; conditions: read-out: Na+/K+-ATPase Inhibition IC50
T1 construct: endogenous in cells; host or cells: HEK-293
Method: (§3) Na/K-ATPase Assays. Inhibition of Na^+/K^+-ATPase on HEK-293 cells and CHO-K1 cells by the library hits was determined by Aurora Biomed, Inc. using a high-throughput non-radioactive rubidium ion uptake assay. Experiments were conducted in duplicate using three different concentrations. Within each experiment, percent inhibition values at the three concentrations were expressed as the percent reduction of the maximum absorption signal observed for a 0 nM control. IC50 values were determined using the following formula: IC50=[(50−low %)/(high %−low %)]×(high conc.−low conc.)+low conc.
(§4) To assess how these structural modifications impact the ability of library members to inhibit Na^+/K^+-ATPases, a fundamental activity of cardiac glycosides (Paula, S., et al., (2005) Biochemistry 44, 498-510), library hits 5β, 15β, 23β, 27β, 33β, 40β, and digitoxin (1) were submitted to a non-radioactive rubidium uptake assay to gauge Na^+/K^+-ATPase inhibition in both […] human embryonic kidney cells and CHO-K1 hamster ovary cells (Gill, S. et al., (2004) ASSAY and Drug Development Technologies 2, 535-542).

MCF7 = test: High-throughput calcein AM cytotoxicity assay, MCF7; type: cell-based, human; conditions: read-out: IC50, MCF7
Source text: as §1

Na+/K+-ATPase [3] = target: Na+/K+-ATPase (Cricetulus griseus, UniProt A0A8C2N4Z0); test: Non-radioactive rubidium ion uptake assay, CHO-K1 cells; type: cell-based, hamster; conditions: read-out: Na+/K+-ATPase Inhibition IC50
Method: as §3, §4

[4] = Hep 3B cells, read-out: IC50, Hep 3B
[5] = SK-OV-3 cells, read-out: IC50, SK-OV-3
[6] = NCI/ADR-RES cells, read-out: IC50, NCI/ADR-RES
[7] = SF-268 cells, read-out: IC50, SF-268
[8] = NmuMG mouse mammary normal epithelial control line
[9] = Du145 cells, read-out: IC50, Du145

| Molecule | cytotoxicity (in words) [1] | IC50 (Na+/K+-ATPase [2]) [nM] | IC50 (HCT-116; HCT-116 cells) [nM] | IC50 (Hep3B; [4]) [nM] | IC50 (SK-OV-3; [5]) [nM] | IC50 (NCI/ADR-RES; [6]) [nM] | IC50 (SF-268; [7]) [nM] | IC50 (NmuMG; [8]) [nM] | IC50 (NCI-H460; NCI-H460 cells) [nM] | IC50 (Du145; [9]) [nM] | IC50 (A549; A549 cells) [nM] | IC50 (MCF7; MCF7 cells) [nM] | IC50 (Na+/K+-ATPase [3]) [nM] | other results |
| --- | --- | --- | --- | --- | --- | --- | --- | --- | --- | --- | --- | --- | --- | --- |
| CON(C1CCC2(C)C(CCC3C2CCC2(C)C(C4=CC(=O)OC4)CCC32O)C1)C1OCC(O)C(O)C1O [15β, D-lyxoside] | significantly more potent than digitoxin against some cell lines | > 300000 | – | – | – | – | – | – | – | – | – | – | – | IC50 (HCT-116; Homo sapiens, HCT-116, HCT-116 cells): 170 nM; IC50 (Hep3B; Homo sapiens, Hep3B, Hep 3B cells, read-out: IC50, Hep 3B): 90 nM; IC50 (SK-OV-3; Homo sapiens, SK-OV-3, read-out: IC50, SK-OV-3, SK-OV-3 cells): 160 nM; IC50 (NCI/ADR-RES; Homo sapiens, NCI/ADR-RES, read-out: IC50, NCI/ADR-RES, NCI/ADR-RES cells): 75 nM; IC50 (SF-268; Homo sapiens, SF-268, read-out: IC50, SF-268, SF-268 cells): 90 nM; IC50 (NmuMG; Mus musculus): 69 nM; IC50 (NCI-H460; Homo sapiens, NCI-H460, NCI-H460 cells): 90 nM; IC50 (Du145; Homo sapiens, DU-145, Du145 cells, read-out: IC50, Du145): 70 nM; IC50 (A549; Homo sapiens, A549, A549 cells): 140 nM; IC50 (MCF7; Homo sapiens, MCF7, MCF7 cells): 230 nM |
| CON([C@H]1CC[C@@]2(C)[C@H](CC[C@@H]3[C@@H]2CC[C@]2(C)[C@@H](C4=CC(=O)OC4)CC[C@]32O)C1)[C@H]1OC[C@H](O)[C@H](O)[C@H]1O [32β, L-arabinoside] | relatively inactive | – | 300 | 1200 | 3000 | 650 | 1000 | 400 | 720 | 1100 | 1700 | 2200 | – | – |
| CON(C1CCC2(C)C(CCC3C2CCC2(C)C(C4=CC(=O)OC4)CCC32O)C1)C1OC(COC2OC(CO)C(O)C(O)C2O)C(O)C(O)C1O (stereo not drawn) [35β, melibioside] | – | – | > 25000 | 26000 | 15000 | 16000 | > 25000 | > 25000 | 29000 | 27000 | > 25000 | > 25000 | – | IC50 ([1]; all cell lines): > 25000 nM |
| CON(C1CCC2(C)C(CCC3C2CCC2(C)C(C4=CC(=O)OC4)CCC32O)C1)C1OC(CO)C(O)C(O)C1O [40β, D-taloside] | – | > 200000 | 1900 | – | 490 | 1900 | 1300 | 480 | 800 | – | 410 | 1400 | 180000 | IC50 (Hep3B; Hep3B, 72 h, calcein AM, read-out: IC50): 180 nM; IC50 (Du145; Du145, 72 h, calcein AM, read-out: IC50): 200 nM |
| D-arabinoside [33β] | closely mimicked this activity | > 300000 | 360 | 260 | 470 | 124 | 160 | 120 | 330 | 170 | 340 | 300 | 170000 | – |
